From ChEMBL document CHEMBL4028827, “Discovery of indazole aldosterone synthase (CYP11B2) inhibitors as potential treatments for hypertension” (Bioorg Med Chem Lett, 2017)

What was measured:
[1] = Intrinsic clearance in rat liver microsomes at […] preincubated for 10 mins followed by NADPH addition measured after 45 mins by LC-MS analysis; type: ADME, microsome; conditions: read-out: CLH
[2] = target: T1, Steroid 17-alpha-hydroxylase/17,20 lyase (Homo sapiens, UniProt P05093); assay: Inhibition of human CYP17 expressed in African green monkey COS7 cells using 17-hydroxypregnenolone as substrate preincubated for 1 hr followed by substrate addition measured after 3 hrs by EIA; type: cell-based
T1 sequence (P05093 whole entry): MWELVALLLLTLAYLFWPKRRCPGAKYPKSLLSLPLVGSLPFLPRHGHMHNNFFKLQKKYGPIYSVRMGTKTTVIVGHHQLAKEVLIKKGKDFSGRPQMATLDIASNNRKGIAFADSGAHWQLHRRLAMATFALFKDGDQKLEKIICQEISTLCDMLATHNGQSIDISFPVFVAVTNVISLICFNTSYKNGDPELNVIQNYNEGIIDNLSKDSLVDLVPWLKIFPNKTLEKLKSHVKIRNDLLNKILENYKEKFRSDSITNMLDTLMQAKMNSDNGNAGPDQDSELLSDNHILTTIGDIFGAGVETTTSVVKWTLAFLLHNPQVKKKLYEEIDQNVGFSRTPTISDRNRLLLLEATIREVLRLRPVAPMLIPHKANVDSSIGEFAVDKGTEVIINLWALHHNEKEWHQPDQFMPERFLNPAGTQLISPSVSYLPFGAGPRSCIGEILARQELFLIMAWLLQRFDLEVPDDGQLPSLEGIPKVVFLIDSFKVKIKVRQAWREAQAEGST

Steroid 21-hydroxylase = target: T2, Steroid 21-hydroxylase (Homo sapiens, UniProt P08686); assay: Inhibition of human CYP21 expressed in African green monkey COS7 cells using […] as substrate preincubated for 1 hr followed by substrate addition measured for 3 hrs by HTRF assay; type: cell-based
T2 sequence (P08686 whole entry): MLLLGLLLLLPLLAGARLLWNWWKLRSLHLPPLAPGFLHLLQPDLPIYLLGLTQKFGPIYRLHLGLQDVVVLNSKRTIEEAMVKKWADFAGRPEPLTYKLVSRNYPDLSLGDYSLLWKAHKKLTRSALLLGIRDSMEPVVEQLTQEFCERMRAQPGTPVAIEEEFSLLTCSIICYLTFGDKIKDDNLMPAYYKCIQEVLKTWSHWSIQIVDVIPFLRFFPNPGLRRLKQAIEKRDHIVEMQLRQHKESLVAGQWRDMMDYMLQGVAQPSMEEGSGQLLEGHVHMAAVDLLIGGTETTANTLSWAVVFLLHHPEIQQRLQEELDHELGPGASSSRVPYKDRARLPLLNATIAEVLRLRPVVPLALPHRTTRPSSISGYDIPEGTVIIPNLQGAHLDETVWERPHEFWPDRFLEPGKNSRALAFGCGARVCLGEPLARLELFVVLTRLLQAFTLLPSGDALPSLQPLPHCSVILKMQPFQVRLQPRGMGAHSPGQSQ

[3] = Selectivity ratio of IC50 for human CYP11B1-8C7 expressed in Chinese hamster V79 cells to IC50 for human CYP11B2-CLE9 expressed in Chinese hamster V79 cells
Cytochrome P450 2C9 = Cytochrome P450 2C9 (Homo sapiens, UniProt P11712); assay: Inhibition of hepatic CYP2C9 (unknown origin); type: ADME
Aromatase = target: T3, Aromatase (Homo sapiens, UniProt P11511); assay: Inhibition of CYP19 (unknown origin) using MFC as substrate and NADPH as cofactor preincubated for 10 mins with cofactor followed by substrate/enzyme addition measured after 30 mins
T3 sequence (P11511 whole entry): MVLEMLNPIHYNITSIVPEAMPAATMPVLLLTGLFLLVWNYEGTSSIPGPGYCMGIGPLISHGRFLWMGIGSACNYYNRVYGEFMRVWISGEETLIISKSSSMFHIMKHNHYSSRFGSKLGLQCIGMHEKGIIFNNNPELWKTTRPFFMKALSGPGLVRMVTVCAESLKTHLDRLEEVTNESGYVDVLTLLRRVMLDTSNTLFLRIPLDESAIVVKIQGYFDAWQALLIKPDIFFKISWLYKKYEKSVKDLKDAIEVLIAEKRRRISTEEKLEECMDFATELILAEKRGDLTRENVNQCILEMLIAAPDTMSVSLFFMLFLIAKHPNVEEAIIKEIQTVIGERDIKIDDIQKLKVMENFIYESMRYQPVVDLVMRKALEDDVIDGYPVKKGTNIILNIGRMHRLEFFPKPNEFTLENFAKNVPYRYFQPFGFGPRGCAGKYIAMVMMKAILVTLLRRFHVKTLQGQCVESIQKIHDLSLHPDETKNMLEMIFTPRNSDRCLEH

[4] = target: T4, Cytochrome P450 11B2, mitochondrial (Homo sapiens, UniProt P19099); assay: Inhibition of human CYP11B2-CLE9 expressed in Chinese hamster V79 cells using 11-deoxycorticosterone as substrate preincubated for 1 hr followed by substrate addition measured for 3 hrs by HTRF assay; type: cell-based
T4 sequence (P19099 whole entry): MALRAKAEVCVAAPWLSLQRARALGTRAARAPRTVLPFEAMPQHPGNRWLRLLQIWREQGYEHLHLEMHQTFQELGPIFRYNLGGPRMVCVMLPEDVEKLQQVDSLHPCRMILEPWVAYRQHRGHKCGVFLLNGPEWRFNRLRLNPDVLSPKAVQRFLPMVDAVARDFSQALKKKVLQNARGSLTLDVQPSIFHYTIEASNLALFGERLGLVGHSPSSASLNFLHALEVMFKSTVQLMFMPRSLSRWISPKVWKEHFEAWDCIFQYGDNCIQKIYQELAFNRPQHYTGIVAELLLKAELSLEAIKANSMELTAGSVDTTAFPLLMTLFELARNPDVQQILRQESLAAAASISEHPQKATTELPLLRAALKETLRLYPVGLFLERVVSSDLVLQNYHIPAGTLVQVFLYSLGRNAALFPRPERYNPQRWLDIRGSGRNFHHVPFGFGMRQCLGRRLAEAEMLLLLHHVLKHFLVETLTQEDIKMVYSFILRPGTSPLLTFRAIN

Rattus norvegicus = assay: Dose normalized AUC in Sprague-Dawley rat at 2 mg/kg, po administered via gavage by LC-MS/MS analysis; type: ADME, organism-based; conditions: in vivo
Cytochrome P450 3A4 = Cytochrome P450 3A4 (Homo sapiens, UniProt P08684); assay: Inhibition of hepatic CYP3A4 (unknown origin); type: ADME
[5] = Plasma clearance in Sprague-Dawley rat at 1 mg/kg, iv or 2 mg/kg, po administered via gavage by LC-MS/MS analysis; type: ADME, organism-based
[6] = Volume of distribution in Sprague-Dawley rat at 1 mg/kg, iv or 2 mg/kg, po administered via gavage by LC-MS/MS analysis; type: ADME, organism-based; conditions: in vivo

Chain of Cytochrome P450 2C9 (P11712 whole entry): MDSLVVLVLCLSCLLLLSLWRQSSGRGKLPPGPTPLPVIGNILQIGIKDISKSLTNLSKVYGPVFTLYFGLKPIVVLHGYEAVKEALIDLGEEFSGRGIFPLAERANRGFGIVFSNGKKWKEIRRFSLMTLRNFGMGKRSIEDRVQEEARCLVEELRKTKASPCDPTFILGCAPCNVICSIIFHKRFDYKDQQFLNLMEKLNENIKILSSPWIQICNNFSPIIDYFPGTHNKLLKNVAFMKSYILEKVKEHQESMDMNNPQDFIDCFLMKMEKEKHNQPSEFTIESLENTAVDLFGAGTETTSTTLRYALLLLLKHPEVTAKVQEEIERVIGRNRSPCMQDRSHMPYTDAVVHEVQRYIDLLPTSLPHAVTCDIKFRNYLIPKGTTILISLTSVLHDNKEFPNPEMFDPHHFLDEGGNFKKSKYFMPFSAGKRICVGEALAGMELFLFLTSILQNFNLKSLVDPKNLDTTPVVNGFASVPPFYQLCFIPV
Chain of Cytochrome P450 3A4 (P08684 whole entry): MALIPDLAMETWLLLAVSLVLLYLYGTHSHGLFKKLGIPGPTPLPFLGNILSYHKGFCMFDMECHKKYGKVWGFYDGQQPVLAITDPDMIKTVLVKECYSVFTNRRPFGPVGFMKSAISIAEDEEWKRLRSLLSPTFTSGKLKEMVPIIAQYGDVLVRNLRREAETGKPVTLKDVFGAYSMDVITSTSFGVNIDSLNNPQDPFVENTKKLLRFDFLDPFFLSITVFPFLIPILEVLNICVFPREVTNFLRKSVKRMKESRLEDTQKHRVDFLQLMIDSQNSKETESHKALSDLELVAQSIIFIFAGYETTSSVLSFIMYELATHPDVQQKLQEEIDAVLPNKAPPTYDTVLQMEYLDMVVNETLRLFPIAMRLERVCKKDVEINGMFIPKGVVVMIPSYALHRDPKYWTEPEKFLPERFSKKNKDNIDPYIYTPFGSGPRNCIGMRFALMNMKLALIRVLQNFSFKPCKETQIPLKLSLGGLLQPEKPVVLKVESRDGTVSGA

CC(C)(O)c1cncc(-n2ncc3c(C(F)(F)F)cccc32)c1
CLint scaled [1]: < 20 mL/min/kg | IC50 [2]: > 10 µM | IC50 (Steroid 21-hydroxylase): > 10 µM | Ratio IC50 [3]: 44 | IC50 (Cytochrome P450 2C9): 9.1 µM | IC50 (Aromatase): 4.6 µM | IC50 [4]: 0.0022 to 0.00224 µM | AUC/dose (Rattus norvegicus): 0.85 µM·kg·h/mg | IC50 (Cytochrome P450 3A4): 43 µM | clearance [5]: 14 mL/min/kg | Vd [6]: 6.3 L/kg
